Test results as given in patent publication US20020051799A1, “Glucosylated hydroxystilbene compounds for treating skin conditions” (priority 2000, published 2002).

Experiments:
[1] = glucosylated form compared with the non glucosylated form; cited from earlier work
tyrosinase = assay: Spectrophotometric tyrosinase assay (255 nm); format: biochemical
Description: A glucosylated resveratrol (4′,5-dihydroxystilbene-3-O-beta-D-glucoside) (APIN Chemicals N17555p, 29 D Milton Park, Abingdon, Oxon, United Kingdom) was incubated in the presence of an extract of stratum corneum or of a homogenate of hair follicles that had been removed by plucking. Under precise experimental conditions, the affinity of the resveratrol for tyrosinase was higher than for glucosylated resveratrol. This property was advantageously employed to measure the resveratrol liberated in the presence of tyrinosase, determined at 255 nm. This method was adapted from the method described by A. A. Calderon: “A Spectrophotometric Assay for Quantitative Analysis of the Oxidation of 4-hydroxystilbene by Peroxidase-H2O2 Systems: J. of Biochem. and Biophys. (1990) Methods 20: 171-180.
A 200 μl aliquot was removed and 10 μl of tyronisase was added.
Two independent measurements were carried out by determining the optical density at 255 nm over 10 minutes and calculating the slope of the graph (60 to 300 seconds).
Under the same conditions, a calibration curve was produced using resveratrol (1; 2.5; 5; 7.5 and 10 μl) in a volume adjusted to […].

affinity for tyrosinase (tyrosinase; compared with glucosylated resveratrol, under precise experimental conditions) | concentrations at which resveratrol action was demonstrated (tyrosinase; in vitro tests) | SMILES | antioxidant activity [1]
 |  | OC[C@H]1O[C@@H](Oc2cc(O)cc(/C=C/c3ccc(O)cc3)c2)[C@H](O)[C@@H](O)[C@@H]1O [glucosylated resveratrol, 4′,5-dihydroxystilbene-3-O-beta-D-glucoside] | far inferior
higher | less than 10 μm | Oc1ccc(C=Cc2cc(O)cc(O)c2)cc1 [resveratrol, 3,4′,5-trihydroxystilbene] | 
